Patent US20230270815A1, “Apoptosis inducing peptide (SSTP1)” (Rajiv Gandhi Centre For Biotechnology, priority 2020, published 2023)
Entries after “also recorded” stand apart in the source; their conditions may differ. Residues, ends and D or L forms follow the SMILES beside them.

Tests used:
IL6Rα [1] = target: T1, IL6Rα (Homo sapiens, UniProt P08887); experiment: Pull-down assay using biotin-labelled peptides; assay type: binding
T1 sequence (P08887 20-468): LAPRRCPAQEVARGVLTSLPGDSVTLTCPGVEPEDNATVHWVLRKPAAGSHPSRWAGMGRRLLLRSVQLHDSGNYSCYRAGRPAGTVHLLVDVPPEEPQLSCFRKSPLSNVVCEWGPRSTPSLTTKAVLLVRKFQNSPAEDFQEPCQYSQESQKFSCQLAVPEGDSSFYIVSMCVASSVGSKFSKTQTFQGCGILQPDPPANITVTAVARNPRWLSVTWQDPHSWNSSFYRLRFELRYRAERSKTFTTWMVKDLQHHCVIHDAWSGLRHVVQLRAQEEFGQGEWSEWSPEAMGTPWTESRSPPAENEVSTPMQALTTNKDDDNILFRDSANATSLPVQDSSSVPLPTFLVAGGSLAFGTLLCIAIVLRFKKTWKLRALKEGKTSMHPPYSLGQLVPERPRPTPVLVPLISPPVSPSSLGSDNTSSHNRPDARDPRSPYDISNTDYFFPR
Source text: To check whether SSTP1 activates the IL6/IL6R pathway by binding to IL6Rα, we checked the co-localization of SSTP1 and IL6Rα on cell membrane. […] To visualize the IL6R-dependent SSTP1 endosomal up-take, we used an early endosome marker, Rab5C. We observed the co-existence of SSTP1 and IL6Rα within early endosomes, marked by Rab5C (FIGS. 4c and d). […] The physical interaction of SSTP1 and IL6Rα was also ascertained using FRET analysis (FIG. 4f).
FIG. 4 illustrates SSTP1 interacts with IL6Rα and mediates the uptake of SSTP1 specifically FIG. 4(a) discusses HSC-4 cells were treated with Biotin labelled SSTP1 or SSTP2 (10 μM) for 30 minutes and then fixed and probed without permeabilization using mouse IL6Rα. 4(b) illustrates the co-localization of SSTP1 or SSTP2 to IL6Rα was analyzed for 11 cells and the Pearson's correlation was plotted. 4(c) illustrates cells were treated as in panel (a) and fixed and permeabilized to probe for IL6Rα, SSTP1 and Rab5c. The arrow mark indicates the co-localization. The scales bars represent 4 μm. 4(d) illustrates the Mander's overlap in SSTP1 foci were quantified for 10 cells. The average values for each cell is plotted. 4(e) illustrates the pull down assay using SSTP1-biotin and probed for IL6Rα. 4(f) illustrates the FRET analysis to show the SSTP1 binding to IL6Rα.

human RBCs = experiment: Hemolysis of human RBCs; settings: 5 μM
Protocol: (§1) Further, the growth inhibitory property of SSTP1 on different cell lines with different levels of IL6Rα was investigated. Six cancer cell lines of different origin were evaluated for their IL6Rα expression in comparison to HSC-4 by western blot (FIGS. 8a and b). […] Since many of the bioactive peptides induce hemolysis, we evaluated the hemolysis induced by SSTP1 (FIG. 8d).

AP1 = experiment: Luciferase AP1 reporter assay; assay type: cell-based; settings: in comparison to SSTP2
human leukocytes = experiment: Trypan blue exclusion of leukocytes; settings: 4.5 μM, 48 h
IL6Rα [2] = target: T1, IL6Rα; experiment: Co-localization of peptide and IL6Rα on cell membrane (Pearson's coefficient); assay type: cell-based; parameters: fixed and probed without permeabilization using mouse IL6Rα; endogenous in cells; host or cells: HSC-4; settings: HSC-4, 10 μM, 30 minutes
Source text: To check whether SSTP1 activates the IL6/IL6R pathway by binding to IL6Rα, we checked the co-localization of SSTP1 and IL6Rα on cell membrane. […] To visualize the IL6R-dependent SSTP1 endosomal up-take, we used an early endosome marker, Rab5C. We observed the co-existence of SSTP1 and IL6Rα within early endosomes, marked by Rab5C (FIGS. 4c and d). […] The physical interaction of SSTP1 and IL6Rα was also ascertained using FRET analysis (FIG. 4f). FIG. 4 illustrates SSTP1 interacts with IL6Rα and mediates the uptake of SSTP1 specifically FIG. 4(a) discusses HSC-4 cells were treated with Biotin labelled SSTP1 or SSTP2 (10 μM) for 30 minutes and then fixed and probed without permeabilization using mouse IL6Rα. 4(b) illustrates the co-localization of SSTP1 or SSTP2 to IL6Rα was analyzed for 11 cells and the Pearson's correlation was plotted. 4(c) illustrates cells were treated as in panel (a) and fixed and permeabilized to probe for IL6Rα, SSTP1 and Rab5c. The arrow mark indicates the co-localization. The scales bars represent 4 μm. 4(d) illustrates the Mander's overlap in SSTP1 foci were quantified for 10 cells. The average values for each cell is plotted. 4(e) illustrates the pull down assay using SSTP1-biotin and probed for IL6Rα. 4(f) illustrates the FRET analysis to show the SSTP1 binding to IL6Rα.

[3] = system: JAK/STAT, JNK/AP1, MAPK and AKT phosphorylation in HSC-4 cells; experiment: Western blot of JAK/STAT, JNK/AP1, MAPK and PI3K pathway phosphorylation; assay type: cell-based; settings: HSC-4, 10 μM
Source text: a. […] The phosphorylated forms of STAT1 (Y701) and STAT3 (Y705) were probed for western blot to see the JAK/STAT pathway activation. Another phosphorylation of STAT3 at S727, which is reported to be independent of JAK activation, was also probed. […] All these biochemical analyses point out that SSTP1 preferentially down-regulates JAK-mediated-phosphorylation of STATs and MAPK, simultaneously up-regulating phosphorylation of JNK1 and cJUN. b.

HSC-4 cells [4] = system: HSC-4 cells
Protocol: Evaluation of the cytotoxicity of SSTP1 and SSTP2 was performed using MTT assay in an oral cancer cell line, HSC-4 at various concentrations of the respective peptides.

HSC-4 cells [5] = experiment: Annexin/PI staining with FACS analysis; assay type: cell-based; settings: HSC-4, 10 μM, 22 h
Protocol: To check whether the cytotoxic effect is due to apoptosis, Annexin/PI staining was performed, with the population with Annexin alone (early apoptotic), Annexin/PI dual stained (late apoptotic) and PI alone (dead cells) were quantified by FACS.

MDA-MB-231 cells = settings: read-out: IC50 growth inhibition (MTT)
[6] = system: Caspase 3, 7, 8, 9 and PARP in HSC-4 cells; experiment: Western blot for caspase and PARP cleavage; assay type: cell-based; settings: HSC-4, 10 μM
[7] = system: six cancer cell lines of different origin; experiment: MTT assay in six cancer cell lines with up-regulated IL6Rα; assay type: cell-based; settings: 10 μM SSTP1, all six cell lines
Protocol: as §1

[8] = system: STAT, JNK and cJUN phosphorylation in HSC-4 cells; experiment: Western blot of HSC-4 cells treated with SSTP1 and inhibitors; assay type: cell-based; settings: HSC-4, SSTP1 10 μM, SC144 40 μM, Anti-IL6Rα 10 μg/ml, 30 minutes
Source text: (§2) a. Inhibitors for IL6 (LMT-28), JAK (Ruxolitinib), gp130 (SC-144) and JNK (SP600125) as well as Anti-IL6Rα were used to check the dispensability of each of these molecules in inducing apoptosis by SSTP1. […] The SSTP1-mediated up-regulation of pJNK was not appreciably affected by either of these inhibitors, while pcJUN up-regulation was inhibited by only SP600125 (FIGS. 7a and b). […] LMT28 binds to the interface between IL6 and gp130 to block the activity of IL6. Since SSTP1 binds to a different site on the IL6/IL6Rα/gp130 complex, i.e., the interface of IL6 and IL6Rα, there is no competitive inhibition when we add LMT28. b.

HSC-4 cells [9] = experiment: MTT assay of SSTP1-induced growth inhibition with or without inhibitors; assay type: cell-based; settings: 4 h, SSTP1 10 μM; LMT-28 60 μM, Anti-IL6Rα 10 μg/ml, SC144 40 μM
Source text: as §2

CC[C@H](C)[C@H](NC(=O)[C@H](CC(C)C)NC(=O)[C@H](CC(C)C)NC(=O)[C@@H]1CCCN1C(=O)[C@H](CC(C)C)NC(=O)[C@@H](N)Cc1ccccc1)C(=O)N[C@@H](CO)C(=O)N[C@@H](C)C(=O)N[C@@H](CC(C)C)C(=O)N[C@H](C(=O)N[C@@H](CO)C(=O)N[C@@H](CC(C)C)C(=O)N[C@@H](Cc1ccccc1)C(=O)N1CCC[C@H]1C(=O)N[C@@H](CCCCN)C(=O)N[C@@H](CC(C)C)C(=O)NCC(=O)N[C@@H](CCCCN)C(N)=O)[C@@H](C)O [SSTP1, FLPLLISALTSLFPKLGK] (H-FLPLLISALTSLFPKLGK-NH2)
physical interaction with IL6Rα (pull-down) (IL6Rα [1]): stronger than that of SSTP2 | hemolysis (human RBCs): 0.25% | AP1 activity (luciferase reporter) (AP1): activated | viability of leukocytes (human leukocytes): did not affect the viability; also recorded: no adverse effect; also recorded: Illustrates SSTP1 do not induce cell death in human leukocytes | co-localization to IL6Rα on cell surface (IL6Rα [2]): several foci on the cell surface with co-localization | STAT1 (Y701) phosphorylation [3]: did not affect STAT1 (Y701) phosphorylation significantly | STAT3 (Y705) phosphorylation [3]: drastically reduced | pJNK2 levels [3]: up-regulated | pSTAT3(S727) [3]: slight up-regulation | pc-JUN level [3]: increased level | phosphorylation of JNK1 [3]: markedly up-regulated | IC50 (HSC-4 cells [4]; read-out: IC50 growth inhibition (MTT), HSC-4 cells): 10.2 µM | increase in early apoptotic population (HSC-4 cells [5]): 3 fold | IC50 (MDA-MB-231 cells): 4.5 µM | Caspase 8 cleavage [6]: unaffected | cleavage of Caspase 3, 7 and 9 [6]: active cleavage | time to PARP cleavage [6]: ≤ 16 h | growth inhibitory potential compared to HSC-4 [7]: drastic increase in the growth inhibitory potential

O=C(NNc1nc2cc(F)ccc2n2cccc12)c1cnccn1 [SC144]
phosphorylation of STATs, JNK and cJUN [8]: significantly reduced | effect on SSTP1-induced growth inhibition (HSC-4 cells [9]): significantly inhibited

CC[C@H](C)[C@H](NC(=O)[C@H](CCCNC(=N)N)NC(=O)[C@H](CCCNC(=N)N)NC(=O)[C@@H]1CCCN1C(=O)[C@H](CC(C)C)NC(=O)[C@@H](N)Cc1ccccc1)C(=O)N[C@@H](CO)C(=O)N[C@@H](C)C(=O)N[C@@H](CCCNC(=N)N)C(=O)N[C@H](C(=O)N[C@@H](CO)C(=O)N[C@@H](CC(C)C)C(=O)N[C@@H](Cc1ccccc1)C(=O)N1CCC[C@H]1C(=O)N[C@@H](CCCCN)C(=O)N[C@@H](CCCNC(=N)N)C(=O)NCC(=O)N[C@@H](CCCCN)C(N)=O)[C@@H](C)O [SSTP2, FLPRRISARTSLFPKRGK-NH2, reference compound] (H-FLPRRISARTSLFPKRGK-NH2)
cytotoxicity (MTT), result in words (HSC-4 cells [4]): ineffective in inducing cytotoxicity
